From patent publication US6262086A, “Pharmaceutical unit dosage form” (priority 2000, dated 2001)
Values joined by “and” are separate entries in the source; they are usually repeats but may differ in a detail not shown here. Equal entries are not always repeated.

Assay: Solubility assessment as a function of HPβCD concentration
Format: physicochemical
Experimental: Solubility studies were performed by the addition of a known mass of 5(6)-methoxy-2-[[(4-methoxy-3,5-dimethyl-2-pyridinyl)-methyl]sulfinyl]-1H- benzimidazole and/or HPβCD to a given volume of solvent system. Solubilities were determined by observation, as the maximum concentration at which 5(6)-methoxy-2-[[(4-methoxy-3,5-dimethyl-2-pyridinyl)-methyl]sulfinyl]-1H- benzimidazole completely dissolved. Additionally, concentrations of 5(6)-methoxy-2-[[(4-methoxy-3,5-dimethyl-2-pyridinyl)-methyl]sulfinyl]-1H- benzimidazole and HPβCD at set molar ratios were solubilized in systems of high pH (adjusted as high as 12.2, with 1N NaOH), the pH was adjusted (using 2N HCl) in a stepwise downward manner until precipitation occurred.
The solubility of 5(6)-methoxy-2-[[(4-methoxy-3,5-dimethyl-2-pyridinyl)-methyl]sulfinyl]-1H- benzimidazole was assessed as a function of HPβCD concentration in water.
The procedure according to Example 86 was repeated except that water with a borate buffer (pH of 8) was employed.
The procedure according to Example 86 was repeated except that water with a phosphate buffer (pH of 11) was employed.

## COc1ccc2[nH]c([S+]([O-])Cc3ncc(C)c(OC)c3C)nc2c1 (stereo not drawn) [5(6)-methoxy-2-[[(4-methoxy-3,5-dimethyl-2-pyridinyl)-methyl]sulfinyl]-1H-benzimidazole]
Water with a borate buffer (pH of 8)
  dependence of solubility on HPβCD concentration: increase linearly as a function of HPβCD concentration
Water with a phosphate buffer (pH of 11)
  dependence of solubility on HPβCD concentration: increase linearly as a function of HPβCD concentration
water, read-out: aqueous solubility in water
  solubility: ~300 µg/mL and ~900 µM
